No end group written: not given here.
System: CD3ε
Experiment: tyrosine phosphorylation of CD3ε, immunoprecipitation and anti-phosphotyrosine immunoblot
Type: cell-based, mouse
Procedure: Immunoprecipitation and Immunoblotting. Enriched primed T cells (2×10^6 cells) in a 24 well Corning plate were TCR-stimulated with 2C11 in the presence of α-MSH (30 pg/ml) under serum-free conditions for 15 minutes. The T cells were collected, placed in a microcentrifuge tube and washed once with 10 mM Tris buffered saline (TBS) and lysed for 30 minutes in 100 μl of ice cold lysate buffer (10 mM TBS, 1% NP-40, 0.5% sodium deoxycholate, 0.1% SDS, 100 μg/ml phenylmethylsulfonyl fluoride (PMSF), 60 μg/ml Aprotinin, and 1 mM sodium orthovanadate). The cells were passed through a 21 gauge needles three times, and an additional 2 μl of 10 mg/ml PMSF was added. The tubes were incubated for an additional 30 minutes on ice and were centrifuged for 20 minutes, 4° C., 13,000×g. The supernatant was collected and used as total cellular lysate. The protein concentration was measured, and added to equal amounts of protein lysate were 20 μg/ml anti-CD3ζ antibody, or anti-CD3ε antibody plus rabbit anti-hamster IgG antibody and incubated overnight at 4° C. The rabbit anti-hamster IgG was needed for the CD3ε immunoprecipitation, since much of the CD3ε was bound by 2C11 a hamster anti-mouse […] and hamster antibody weakly binds protein-G. Protein-G sepharose beads (Pharmacia, Piscataway, N.J.) were added to the antibody containing lysates and incubated for 1 hour at room temperature with end over end agitation. The beads were centrifuged and washed 4 times with 10 mM TBS containing 0.5% sodium deoxycholate. After the final wash the beads were resuspended in 20 μl of distilled water and 20 μl non-reducing SDS Tris-glycine sample buffer (Novex, San Diego, Calif.), boiled for 5 minutes and applied into two wells (20 μl) of a 8-16% Tris-glycine polyacrylamide gel (Novex).
Following electrophoresis in a Novex Xcell II minicell and blot module, the proteins were transferred from the gel onto a nitrocellulose membrane (Novex) by electroblotting. The membrane was blocked with 1% BSA in 0.01 M TBS for 1 hour room temperature. […] Membranes were digitally photographed and analyzed using NIH Image software to integrate the band intensities relative to band area minus background. […]
The enriched primed T cells (2×10^6 cells) were incubated with anti-CD3 in the presence of α-MSH (30 pg/ml) for 15 minutes. […] The immunoprecipitates were analyzed by non-reducing SDS-PAGE (on a 8-16% gradient gel), followed by transfer to a nitrocellulose filter and immunoblotting with anti-phosphotyrosine antibody: (1) Unstimulated primed T cells treated with α-MSH; (2) Unstimulated primed T cells incubated in media alone; (3) Enriched primed T cells TCR-stimulated in the absence of α-MSH; (4) Enriched primed T cells TCR-stimulated in the presence of α-MSH. […]

α-melanocyte stimulating hormone (SYSMEHFRWGKPV; not fully specified; ends and bridges not checked; UniProt P01189 138-150, looked up) [α-MSH, synthetic α-MSH (Peninsula Laboratories); thirteen-amino acid neuropeptide derived from POMC]
level of tyrosine phosphorylation of CD3ε chains (TCR-stimulated and unstimulated primed T cells, Example I (FIG. 7B)): no effect
relative intensity of phosphotyrosine band, CD3ε (TCR-stimulated primed T cells, α-MSH 30 pg/ml, 15 minutes (lane 4; without α-MSH 10)): 10
overall level of tyrosine phosphorylation of CD3ε (TCR-stimulated primed T cells, α-MSH 30 pg/ml, 15 minutes, Example III (FIG. 18A)): no significant change
relative intensity of phosphotyrosine band, CD3ε (unstimulated primed T cells, α-MSH 30 pg/ml, 15 minutes (lane 1; media alone 1)): 1
